Data on two compounds can be found in ChEMBL document CHEMBL1121669, “Nucleosides. 114. 5'-O-Glucuronides of 5-fluorouridine and 5-fluorocytidine. Masked precursors of anticancer nucleosides” (1981).

This assay relates to P815. As to the kind of experiment: Cytotoxicity against P815 tumor cell line. In kind it is functional. The conditions noted are these: Mus musculus, read-out: ID50 (the source's name).

Take `O=C([O-])C1OC(OC[C@H]2OC(n3cc(F)c(=O)[nH]c3=O)[C@H](O)[C@@H]2O)[C@H](O)[C@@H](O)[C@@H]1O.[Na+]` (some centres not stated): the IC50 was 6 µg/mL. Turning to `Nc1nc(=O)n(C2O[C@H](CO[C@@H]3OC(C(=O)[O-])[C@@H](O)[C@H](O)[C@H]3O)[C@@H](O)[C@H]2O)cc1F.[Na+]` (some centres not stated), the IC50 worked out at 6 µg/mL.
